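Test compounds were applied to cells in 96-well plates for 48 hours at 5 doses. GI50 marks 50% less growth.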 Activity calls are given as the source filed them. Cut-off read from the data, not from the text of the source: active = GI50 up to about 1.1 µM and inactive = higher.
Assays:
Test in all cases: NCI tumour cell line growth inhibition, 48 h
[1] = system: Hs-578T
[2] = system: UO-31
[3] = system: RPMI-8226
[4] = system: NCI/ADR-RES
[5] = system: T47D
[6] = system: CCRF-CEM
[7] = system: MDA-MB-435
[8] = system: SF-295
[9] = system: PC-3
[10] = system: NCI-H226
[11] = system: A498
[12] = system: SK-MEL-5
[13] = system: SF-268
[14] = system: MDA-N
[15] = system: KM12
[16] = system: IGROV-1
[17] = system: MOLT-4
[18] = system: SF-539
[19] = system: TK-10

Measured: GI50

COc1ccc(-c2nc(O)c3ccccc3n2)c(OC)c1
inactive: [1] > 100 µM | [2] > 100 µM | [3] 29.1 µM | [4] > 100 µM | [5] > 100 µM | [6] > 100 µM | [7] > 100 µM | [8] > 100 µM | [9] > 100 µM | [10] > 100 µM | [11] > 100 µM | [12] > 100 µM | [13] > 100 µM | [14] > 100 µM | [15] > 100 µM | [16] > 100 µM | [17] > 100 µM

N#CC(c1ccccc1)N(CCOCCOCCN(C(=O)c1cccc2ccccc12)C(C#N)c1ccccc1)C(=O)c1cccc2ccccc12 (stereo unspecified)
inactive: [1] > 100 µM | [2] > 100 µM | [4] > 100 µM | [5] 4.1 µM | [6] > 100 µM | [7] > 100 µM | [8] > 100 µM | [9] > 100 µM | [10] > 100 µM | [11] > 100 µM | [12] > 100 µM | [13] > 100 µM | [14] > 100 µM | [18] > 100 µM | [15] > 100 µM | [19] > 100 µM | [16] > 100 µM | [17] 8.15 µM

C[C@]12CCC(=O)O[C@H]1CCCCO2
inactive: [1] > 100 µM | [4] > 100 µM | [5] > 100 µM | [6] > 100 µM | [7] > 100 µM | [8] > 100 µM | [9] > 100 µM | [10] > 100 µM | [11] > 100 µM | [12] > 100 µM | [13] > 100 µM | [14] > 100 µM | [18] > 100 µM | [15] > 100 µM | [19] > 100 µM | [16] > 100 µM | [17] > 100 µM

C=C1CC2[C@H](C)C(=O)CCC2(C)C2=C1C1CCC(C(C)CCC(=C)C(C)C(=O)O)C1(C)CC2=O (stereo partly specified)
inactive: [1] > 100 µM | [2] 30.9 µM | [4] 84.1 µM | [5] 41.6 µM | [6] 11.8 µM | [7] 58.5 µM | [8] 62.5 µM | [9] 32.1 µM | [10] 82 µM | [11] > 100 µM | [12] 31.3 µM | [13] > 100 µM | [14] 95.3 µM | [18] 97.3 µM | [15] 71.4 µM | [19] 44.9 µM | [16] 56.9 µM | [17] 16.8 µM

C=CCOc1ccc(C(=N/NC(=O)c2ccccc2)/N=N/c2ccc([N+](=O)[O-])cc2)cc1OC
inactive: [1] > 100 µM | [2] > 100 µM | [4] > 100 µM | [5] 29 µM | [6] > 100 µM | [7] > 100 µM | [8] > 100 µM | [9] > 100 µM | [10] > 100 µM | [11] > 100 µM | [12] 76.6 µM | [13] > 100 µM | [14] > 100 µM | [18] > 100 µM | [15] > 100 µM | [19] > 100 µM | [16] > 100 µM | [17] 92.5 µM

COC(=O)c1ccccc1C1CN=NC12Cc1ccc(C)c(C)c1C2=O (stereo unspecified)
inactive: [1] > 100 µM | [2] 93.8 µM | [4] 21.9 µM | [5] 20.5 µM | [6] 34.3 µM | [7] 64.3 µM | [8] 46.5 µM | [9] 50.8 µM | [10] > 100 µM | [11] > 100 µM | [12] 21.6 µM | [13] > 100 µM | [14] 77.4 µM | [18] > 100 µM | [15] 29.2 µM | [19] 56.2 µM | [16] > 100 µM | [17] 26.1 µM

From ChEMBL document CHEMBL1201862, “PubChem BioAssay data set” (2004)
